According to the CheMixHub viscosity set:
± gives the uncertainty stated by the source.

What was measured:
[1] = xn = mol fraction of the nth substance listed

C=COC(C)=O + Cc1ccccc1C
viscosity [mPa·s], [1], 101 kPa
Settings | x1 = 0.1492 | x1 = 0.2538 | x1 = 0.3604 | x1 = 0.4517 | x1 = 0.5641 | x1 = 0.6689 | x1 = 0.7705 | x1 = 0.8616 | x1 = 0.9508
303.15 K | 0.632 ± 0.008 | 0.594 ± 0.008 | 0.558 ± 0.007 | 0.529 ± 0.007 | 0.494 ± 0.006 | 0.463 ± 0.006 | 0.435 ± 0.006 | 0.413 ± 0.005 | 0.394 ± 0.005
313.15 K | 0.57 ± 0.007 | 0.537 ± 0.007 | 0.505 ± 0.007 | 0.478 ± 0.006 | 0.446 ± 0.006 | 0.417 ± 0.005 | 0.391 ± 0.005 | 0.37 ± 0.005 | 0.353 ± 0.005

N#CCCl
101 kPa
Settings | viscosity [mPa·s]
293.15 K | 0.938 ± 0.025
298.15 K | 0.863 ± 0.023
303.15 K | 0.798 ± 0.021
313.15 K | 0.714 ± 0.019
323.15 K | 0.616 ± 0.016

CCCCOC(C)=O + CCC(C)O
viscosity [mPa·s], [1], 100 kPa
Settings | x1 = 0.081 | x1 = 0.16 | x1 = 0.24 | x1 = 0.35 | x1 = 0.44 | x1 = 0.5598 | x1 = 0.6499 | x1 = 0.74 | x1 = 0.85 | x1 = 0.94
293.15 K | 2.444 ± 0.29 | 1.639 ± 0.2 | 1.195 ± 0.14 | 0.976 ± 0.12 | 0.907 ± 0.11 | 0.859 ± 0.1 | 0.827 ± 0.1 | 0.794 ± 0.096 | 0.757 ± 0.091 | 0.736 ± 0.089
298.15 K | 2.041 ± 0.24 | 1.423 ± 0.17 | 1.045 ± 0.13 | 0.87 ± 0.1 | 0.805 ± 0.097 | 0.768 ± 0.092 | 0.746 ± 0.09 | 0.732 ± 0.088 | 0.703 ± 0.085 | 0.681 ± 0.082
303.15 K | 1.797 ± 0.22 | 1.267 ± 0.15 | 0.941 ± 0.11 | 0.767 ± 0.092 | 0.713 ± 0.086 | 0.692 ± 0.083 | 0.677 ± 0.081 | 0.663 ± 0.08 | 0.649 ± 0.078 | 0.636 ± 0.077
308.15 K | 1.523 ± 0.18 | 1.084 ± 0.13 | 0.844 ± 0.1 | 0.692 ± 0.083 | 0.644 ± 0.078 | 0.618 ± 0.074 | 0.604 ± 0.073 | 0.597 ± 0.072 | 0.592 ± 0.071 | 0.584 ± 0.07
313.15 K | 1.28 ± 0.15 | 0.951 ± 0.11 | 0.756 ± 0.091 | 0.633 ± 0.076 | 0.585 ± 0.07 | 0.555 ± 0.067 | 0.544 ± 0.066 | 0.541 ± 0.065 | 0.546 ± 0.066 | 0.542 ± 0.065
318.15 K | 1.111 ± 0.13 | 0.828 ± 0.1 | 0.681 ± 0.082 | 0.575 ± 0.069 | 0.531 ± 0.064 | 0.506 ± 0.061 | 0.5 ± 0.1 | 0.5 ± 0.1 | 0.502 ± 0.06 | 0.501 ± 0.06
323.15 K | 0.963 ± 0.12 | 0.748 ± 0.09 | 0.619 ± 0.075 | 0.535 ± 0.064 | 0.497 ± 0.06 | 0.477 ± 0.058 | 0.466 ± 0.056 | 0.46 ± 0.06 | 0.455 ± 0.055 | 0.457 ± 0.055

ClCCOCCCl + FB(F)F
[1], 101 kPa, x2 = 0.0939
Settings | viscosity [mPa·s]
293.15 K | 23.94 ± 0.64
303.15 K | 14.59 ± 0.4
313.15 K | 9.569 ± 0.26
323.15 K | 6.506 ± 0.18

CC(C)c1ccccc1 + Cc1ccccc1
[1]
Settings | viscosity [mPa·s]
293.15 K, 101.33 kPa, x2 = 0.2846 | 0.727 ± 0.015
293.15 K, 101.33 kPa, x2 = 0.5253 | 0.676 ± 0.01
293.15 K, 101.33 kPa, x2 = 0.6998 | 0.644 ± 0.008
293.15 K, 101.33 kPa, x2 = 0.856 | 0.612 ± 0.006
298.15 K, 101.3 kPa, x2 = 0.1169 | 0.6671 ± 0.0056
298.15 K, 101.3 kPa, x2 = 0.2596 | 0.643 ± 0.0055
298.15 K, 101.3 kPa, x2 = 0.3951 | 0.6203 ± 0.0053
298.15 K, 101.3 kPa, x2 = 0.508 | 0.6016 ± 0.0052
298.15 K, 101.3 kPa, x2 = 0.605 | 0.5854 ± 0.0051
298.15 K, 101.3 kPa, x2 = 0.7505 | 0.5615 ± 0.0049
298.15 K, 101.3 kPa, x2 = 0.8459 | 0.5459 ± 0.0048
298.15 K, 101.3 kPa, x2 = 0.9474 | 0.5288 ± 0.0047
303.15 K, 101.33 kPa, x2 = 0.2846 | 0.638 ± 0.013
303.15 K, 101.33 kPa, x2 = 0.5253 | 0.597 ± 0.009
303.15 K, 101.33 kPa, x2 = 0.6998 | 0.57 ± 0.007
303.15 K, 101.33 kPa, x2 = 0.856 | 0.544 ± 0.005
313.15 K, 101.33 kPa, x2 = 0.2846 | 0.569 ± 0.011
313.15 K, 101.33 kPa, x2 = 0.5253 | 0.533 ± 0.008
313.15 K, 101.33 kPa, x2 = 0.6998 | 0.509 ± 0.006
313.15 K, 101.33 kPa, x2 = 0.856 | 0.485 ± 0.005
323.15 K, 101.33 kPa, x2 = 0.2846 | 0.507 ± 0.01
323.15 K, 101.33 kPa, x2 = 0.5253 | 0.477 ± 0.007
323.15 K, 101.33 kPa, x2 = 0.6998 | 0.458 ± 0.006
323.15 K, 101.33 kPa, x2 = 0.856 | 0.437 ± 0.005

C[n+]1ccn(CCO)c1.O=C([O-])C(F)(F)C(F)(F)C(F)(F)C(F)(F)F
101 kPa
Settings | viscosity [mPa·s]
298.15 K | 712.8 ± 38
308.15 K | 351.3 ± 17
318.15 K | 190.8 ± 8.5

CCCN + CCCCO
[1]
Settings | viscosity [mPa·s]
298.15 K, 100 kPa, x2 = 0.0488 | 0.3946 ± 0.0045
298.15 K, 100 kPa, x2 = 0.0977 | 0.4367 ± 0.005
298.15 K, 100 kPa, x2 = 0.2026 | 0.552 ± 0.0063
298.15 K, 100 kPa, x2 = 0.2966 | 0.6772 ± 0.0076
298.15 K, 100 kPa, x2 = 0.4 | 0.8384 ± 0.0094
298.15 K, 100 kPa, x2 = 0.4939 | 1.003 ± 0.011
298.15 K, 100 kPa, x2 = 0.58 | 1.166 ± 0.013
298.15 K, 100 kPa, x2 = 0.645 | 1.305 ± 0.015
298.15 K, 100 kPa, x2 = 0.7024 | 1.45 ± 0.016
298.15 K, 100 kPa, x2 = 0.7958 | 1.721 ± 0.019
298.15 K, 100 kPa, x2 = 0.9025 | 2.113 ± 0.024
303.15 K, 101 kPa, x1 = 0.01186 | 2.214 ± 0.015
303.15 K, 101 kPa, x1 = 0.02208 | 2.185 ± 0.014
303.15 K, 101 kPa, x1 = 0.03071 | 2.16 ± 0.014
303.15 K, 101 kPa, x1 = 0.04153 | 2.133 ± 0.014
303.15 K, 101 kPa, x1 = 0.04894 | 2.113 ± 0.014
303.15 K, 101 kPa, x1 = 0.06228 | 2.083 ± 0.014
303.15 K, 101 kPa, x1 = 0.07291 | 2.053 ± 0.014
303.15 K, 101 kPa, x1 = 0.07608 | 2.038 ± 0.013
303.15 K, 101 kPa, x1 = 0.08641 | 2.013 ± 0.013
303.15 K, 101.33 kPa, x1 = 0.0967 | 2.02 ± 0.013
303.15 K, 101.33 kPa, x1 = 0.186 | 1.771 ± 0.011
303.15 K, 101.33 kPa, x1 = 0.2863 | 1.501 ± 0.0094
303.15 K, 101.33 kPa, x1 = 0.4131 | 1.177 ± 0.0075
303.15 K, 101.33 kPa, x1 = 0.514 | 0.9669 ± 0.0062
303.15 K, 101.33 kPa, x1 = 0.6196 | 0.7833 ± 0.0051
303.15 K, 101.33 kPa, x1 = 0.7178 | 0.6396 ± 0.0044
303.15 K, 101.33 kPa, x1 = 0.8121 | 0.5233 ± 0.0039
303.15 K, 101.33 kPa, x1 = 0.9017 | 0.433 ± 0.0035
313.15 K, 101.33 kPa, x1 = 0.0967 | 1.617 ± 0.01
313.15 K, 101.33 kPa, x1 = 0.186 | 1.427 ± 0.0091
313.15 K, 101.33 kPa, x1 = 0.2863 | 1.218 ± 0.0078
313.15 K, 101.33 kPa, x1 = 0.4131 | 0.9675 ± 0.0063
313.15 K, 101.33 kPa, x1 = 0.514 | 0.7924 ± 0.0052
313.15 K, 101.33 kPa, x1 = 0.6196 | 0.6548 ± 0.0045
313.15 K, 101.33 kPa, x1 = 0.7178 | 0.5412 ± 0.004
313.15 K, 101.33 kPa, x1 = 0.8121 | 0.4506 ± 0.0036
313.15 K, 101.33 kPa, x1 = 0.9017 | 0.3783 ± 0.0033

CCCCCCCCCCCCCCCCCCCC
Settings | viscosity [mPa·s]
313.2 K, 101.3 kPa | 4.01 ± 0.045

CN1CCCN(C)C1=O
viscosity [mPa·s]
Settings | 293.15 K | 298.15 K | 303.15 K | 308.15 K | 313.15 K | 318.15 K | 323.15 K
100 kPa | 3.514 ± 0.14 | 3.11 ± 0.13 | 2.779 ± 0.11 | 2.501 ± 0.1 | 2.266 ± 0.093 | 2.064 ± 0.085 | 1.891 ± 0.077
101 kPa | – | 2.95 ± 0.02 | – | – | – | – | –

Clc1ccccc1Cl + COc1ccccc1
viscosity [mPa·s], [1], 101 kPa
Settings | x2 = 0.0977 | x2 = 0.1979 | x2 = 0.3012 | x2 = 0.403 | x2 = 0.4955 | x2 = 0.5995 | x2 = 0.6967 | x2 = 0.7951 | x2 = 0.8931
298.15 K | 1.201 ± 0.011 | 1.172 ± 0.011 | 1.142 ± 0.01 | 1.118 ± 0.01 | 1.097 ± 0.01 | 1.081 ± 0.01 | 1.056 ± 0.0099 | 1.037 ± 0.0097 | 1.022 ± 0.0096
303.15 K | 1.121 ± 0.01 | 1.094 ± 0.01 | 1.067 ± 0.0099 | 1.042 ± 0.0097 | 1.019 ± 0.0096 | 1 ± 0.0095 | 0.9808 ± 0.0094 | 0.9631 ± 0.0093 | 0.9486 ± 0.0092
308.15 K | 1.046 ± 0.0097 | 1.02 ± 0.0096 | 0.9938 ± 0.0094 | 0.9716 ± 0.0093 | 0.949 ± 0.0091 | 0.9288 ± 0.009 | 0.9098 ± 0.0089 | 0.8944 ± 0.0088 | 0.881 ± 0.0088
313.15 K | 0.9762 ± 0.0094 | 0.9514 ± 0.0092 | 0.9268 ± 0.009 | 0.9045 ± 0.0089 | 0.8869 ± 0.0088 | 0.8664 ± 0.0086 | 0.8479 ± 0.0085 | 0.832 ± 0.0085 | 0.8178 ± 0.0084
